Laboratory results taken from PMC5587642, “A Novel Benzocoumarin-Stilbene Hybrid as a DNA ligase I inhibitor with in vitro and in vivo anti-tumor activity in breast cancer models” (Scientific Reports, 2017).

What was measured:
[1] = In-vivo pharmacokinetic study; parameters: species or system Sprague Dawley (SD) rats; conditions: rat
Method: Male Sprague Dawley (SD) rats weighing 200–220 g were obtained from the Laboratory of Animal Division of CSIR-CDRI (Lucknow, India). Animals were kept in well ventilated cages in hygienic conditions at room temperature (24 ± 2 °C), 40–60% relative humidity and 12 h light-dark cycle. The animals were acclimatized for a minimum period of 3 days prior to the experiments. Pharmacokinetic study was conducted according to protocol approved by the CSIR-CDRI Institutional Animal Ethic Committee (IAEC approval no. IAEC/2012/91). Compound 19 was dissolved in DMSO:Poly Ethylene Glycol-400: 0.9%w/v saline in the ratio of 1:1:2 and was intravenously administered at the dose of 5 mg/kg to each rat (n = 6). The rats were kept on fasting overnight with water alone for oral pharmacokinetic studies. Compound 19 was dissolved in DMSO:Poly Ethylene Glycol-400: 0.5% w/v Sodium carboxymethyl cellulose in TDW in the ratio of 3:1:4 and was orally administered at the dose of 50 mg/kg to each rat (n = 6). Blood samples were collected in microcentrifuge tubes for each time point at 0.083, 0.167, 0.333, 0.5, 0.75, 1.0, 2.0, 4.0, 6.0, 8.0, 10.0, 12.0, 24.0, 48.0 and 72 h post dosing. The blood samples were collected after light ether anesthesia from the retro-orbital plexus of rats using heparin as anticoagulant. Plasma was separated after centrifugation at 5000 rpm for 10 min and all the samples were stored at −80 °C until analysis. Rat plasma samples were processed using liquid-liquid extraction. 100 µL aliquot of plasma mixed with 150 µL of acetonitrile and 100 µL of 5 mM NaHCO3 solution was added and vortexed to mix well. In each sample, 2.5 mL of tert-Butyl methyl ether (TBME) (extraction solvent) was added and vortexed for 10 min at 2500 rpm on vibramax (Heidolph, Schwabach, Germany) followed by centrifugation (Eppendorf, Hamburg, Germany) at 5,000 rpm for 5 min. An aliquot of 2.0 mL of supernatant organic layer was separated and evaporated on vacuum concentrator (Thermo scientific, Asheville, USA) to complete dryness. The residue was reconstituted with 100 µL of mobile phase and injected into the LC-MS/MS system for analysis. The plasma samples ([…]) were assayed along with calibration standards and QC samples and the levels of compound 19 was calculated using Analyst software. The pharmacokinetic profile and parameters were evaluated by non-compartmental model approach using Pheonix 6.3 WinNonlin (Pharsight corporation, USA) including t1/2, elimination half-life; Cmax, maximum plasma concentration; tmax, time to reach maximum plasma concentration; AUC0-t, area under concentration curve from zero to last time point.

MDA-MB-231 cells [2] = assay: Cell cycle distribution analysis (PI, FACS); assay type: cell-based, human; conditions: 12 µM
Method: For the study of cell cycle distribution, cells were synchronized by serum starvation for 48 h and then grown in serum containing media in the presence or absence of 12 µM compound 19, after 0, 24 and 48 h, cells were harvested, washed twice with cold PBS and fixed with 70% ethanol. The fixed cells were washed with chilled PBS and then stained with 50 μg/mL of Propidium iodide. Cell cycle distribution was analyzed by using FACS-Calibur (BD Biosciences, San Diago, CA).

[3] = Metabolic stability in rat liver microsomes; assay type: in vitro ADME
Method: Major drug clearance in the body occurs due to its metabolism in the liver. Metabolic stability in rat liver microsomes (RLM) was conducted in triplicate. Compound 19 (5 µM) was incubated in reaction milieu which contains RLM (0.5 mg/ml), MgCl2 (10 mM), NADPH (10 mM) in a 1.5 ml phosphate buffer solution (pH 7.4). Reaction was started by the addition of NADPH and kept in a shaking water bath at 37 °C. Organic content in reaction mixture was kept less than 1%. Time points at which samples were withdrawn were 0, 5, 15, 30, 45, 60 min. Testosterone was used as control to know the RLM enzyme activity. Control reaction without NADPH was performed to explore any chemical instability or non-cofactor dependent enzymatic degradation. At each time point 150 µL aliquots were withdrawn and added in 150 µL ACN, […] at 10,000 g for 5 minutes, 100 µL samples was pipetted out & analyzed in HPLC-PDA.

[4] = system: MCF-10A (Normal breast epithelial cells); assay: MTT cell viability assay; assay type: cell-based, human
Method: (§1) Cell viability assay was performed as described previously. Briefly, cells were seeded in 96 well plates and treated with different concentrations of compound 19 for 48 h. After drug treatment, MTT reagent was added in each well of the plate and cell viability was quantified by measuring the absorbance at 590 nm.

MDA-MB-231 cells [5] = assay: MTT cell viability assay; assay type: cell-based, human; conditions: for IC50: MTT, 48 h
Method: as §1

MDA-MB-231 cells [6] = assay: Annexin V-FITC/PI apoptosis flow cytometry; assay type: cell-based, human
Method: Apoptotic cell death of MDA-MB-231 cells upon treatment with compound 19 was measured using a commercially available Annexin V-FITC apoptosis detection kit according to the manufacturer’s protocol (BD Biosciences, San Diego, CA). Briefly, cells were treated with different concentrations (0, 6 and 12 µM) of compound 19 for 24 and 48 h. The cells were then harvested, washed with cold PBS and stained with Annexin V-FITC and propidium iodide (PI) in binding buffer at room temperature in the dark. The stained cells were analyzed by fluorescence-activated cell sorting using a FACS-Calibur instrument (BD Biosciences, San Diego, CA) equipped with CellQuest 3.3 Software.

PARP1 = PARP1 (Homo sapiens, UniProt P09874); assay: PARP1 activity assay (NAD fluorescence); conditions: compound 19 at 5, 10 and 20 µM
Description: Human PARP1 full length protein was purified as described previously ^4,5.
Samples were cooled and fluorescence measurement carried out at excitation 360nm and emission range 445nm.

[7] = male, Sprague Dawley, plasma, iv, I.V route, 5 mg/kg
[8] = male, Sprague Dawley, plasma, oral route, 50 mg/kg
[9] = 0 h (treated and untreated cells)

Chain of PARP1 (P09874 whole entry): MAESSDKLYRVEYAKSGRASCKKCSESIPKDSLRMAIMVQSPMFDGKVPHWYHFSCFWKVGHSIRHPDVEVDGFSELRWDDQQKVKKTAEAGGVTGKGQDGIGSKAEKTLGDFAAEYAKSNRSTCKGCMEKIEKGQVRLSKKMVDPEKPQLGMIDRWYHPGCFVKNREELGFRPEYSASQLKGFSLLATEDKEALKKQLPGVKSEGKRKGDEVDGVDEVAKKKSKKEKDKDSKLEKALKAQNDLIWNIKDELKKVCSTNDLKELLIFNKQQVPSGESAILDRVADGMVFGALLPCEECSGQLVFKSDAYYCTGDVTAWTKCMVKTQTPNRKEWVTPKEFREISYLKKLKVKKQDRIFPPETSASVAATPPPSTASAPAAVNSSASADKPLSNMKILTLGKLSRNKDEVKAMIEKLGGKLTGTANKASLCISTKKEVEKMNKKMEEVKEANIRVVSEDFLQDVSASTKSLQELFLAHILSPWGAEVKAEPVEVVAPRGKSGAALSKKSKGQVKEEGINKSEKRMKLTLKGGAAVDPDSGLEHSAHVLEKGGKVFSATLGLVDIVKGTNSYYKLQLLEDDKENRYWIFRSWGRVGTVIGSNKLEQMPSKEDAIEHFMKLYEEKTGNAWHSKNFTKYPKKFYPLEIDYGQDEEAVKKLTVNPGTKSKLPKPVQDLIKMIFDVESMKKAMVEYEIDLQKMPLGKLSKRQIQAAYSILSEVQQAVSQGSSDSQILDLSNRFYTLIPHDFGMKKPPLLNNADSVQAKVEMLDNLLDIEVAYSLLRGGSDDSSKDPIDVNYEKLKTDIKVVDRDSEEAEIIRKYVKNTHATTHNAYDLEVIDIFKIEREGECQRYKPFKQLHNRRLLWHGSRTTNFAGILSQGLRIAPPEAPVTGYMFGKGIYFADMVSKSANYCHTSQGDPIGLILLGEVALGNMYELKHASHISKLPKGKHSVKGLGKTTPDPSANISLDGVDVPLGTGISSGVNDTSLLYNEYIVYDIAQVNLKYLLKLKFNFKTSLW

Question: With `COc1cc(/C=C/c2cc(=O)oc3c2ccc2ccccc23)cc(OC)c1` [Compound 19, (E)-4-(3,5-dimethoxystyryl)-2H-benzo[h]chromen-2-one] as the compound, how does the Cmax ([1]; male, Sprague Dawley, iv, I.V route, 5 mg/kg, plasma concentration at 5 min) read?
Answer: 325 ± 102 ng/mL

Question: What about the AUC(0-t) [1, 7] of the same compound?
Answer: 457 ± 131 ng·h/mL

Question: What about the half-life [1, 7] of the same compound?
Answer: 19.2 ± 11.8 h

Question: What about the bioavailability ([1]; male, Sprague Dawley, plasma, oral 50 mg/kg versus I.V 5 mg/kg, read-out: Bioavailability (%F)) of the same compound?
Answer: 7.85 ± 0.65%

Question: What about the AUC(0-t) [1, 8] of the same compound?
Answer: 342 ± 18.6 ng·h/mL

Question: What about the Cmax [1, 8] of the same compound?
Answer: 13.4 ± 2.92 ng/mL

Question: What about the Tmax [1, 8] of the same compound?
Answer: 0.5 h

Question: What about the half-life [1, 8] of the same compound?
Answer: 22.8 ± 4.69 h

Question: What about the “Time up to which plasma concentrations are detectable” value ([1]; after oral dosing, 50 mg/kg) of the same compound?
Answer: up to 72 h

Question: And the “Cells in G0/G1 phase” value (MDA-MB-231 cells [2]; [9])?
Answer: 75.12 ± 2.23%

Question: What about the “Cells in G2/M phase” value (MDA-MB-231 cells [2]; [9]) of the same compound?
Answer: 8.71 ± 1.57%

Question: What about the “Cells in S-phase” value (MDA-MB-231 cells [2]; [9]) of the same compound?
Answer: 16.18 ± 0.65%

Question: What about the “Cells in G0/G1 phase” value (MDA-MB-231 cells [2]; 24 h) of the same compound?
Answer: 57.61 ± 0.1%

Question: And the “Cells in G2/M phase” value (MDA-MB-231 cells [2]; 24 h)?
Answer: 21.48 ± 2.50%

Question: And the “Cells in S phase” value (MDA-MB-231 cells [2]; 24 h)?
Answer: 20.91 ± 2.61%

Question: What about the “Cells in G0/G1 phase” value (MDA-MB-231 cells [2]; 48 h) of the same compound?
Answer: 33.78 ± 4.77%

Question: And the “Cells in G2/M phase” value (MDA-MB-231 cells [2]; 48 h)?
Answer: 32.53 ± 0.58%

Question: And the “Cells in S phase” value (MDA-MB-231 cells [2]; 48 h)?
Answer: 33.7 ± 4.2%

Question: What about the Microsomal metabolic stability ([3]; 5 µM, RLM 0.5 mg/ml, NADPH, up to 60 min) of the same compound?
Answer: 55.5 ± 4.77%

Question: And the “Stability in control reaction in the absence of cofactor” value ([3]; RLM without NADPH)?
Answer: stable

Question: What about the “% Inhibition of cell viability at 10 µM, MCF-10A (Normal breast epithelial cells)” value [4] of the same compound?
Answer: 50.83%

Question: What about the “% Inhibition of cell viability at 10 µM, MDA-MB-231 (Breast)” value (MDA-MB-231 cells [5]; 10 µM) of the same compound?
Answer: 51.35%

Question: And the inhibition at 10 µM (MDA-MB-231 cells [5]; Homo sapiens, MDA-MB-231, 48 h, 10 μM, % inhibition, read-out: Antiproliferative activity at 10μM in MDA-MB-231)?
Answer: > 50%

Question: What about the IC50 (MDA-MB-231 cells [5]; Homo sapiens, MDA-MB-231, 48 h) of the same compound?
Answer: 12.5 ± 2.8 µM

Question: And the “Comparative cell viability versus parent compounds” value (MDA-MB-231 cells [5]; MDA-MB-231, versus Neo-tanshinlactone and resveratrol)?
Answer: more active as compared to parent compounds

Question: And the IC50 (MDA-MB-231 cells [5])?
Answer: 12 µM

Question: And the Apoptosis (MDA-MB-231 cells [6]; 6 µM, 24 h)?
Answer: 10.78 ± 1.21%

Question: And the Apoptosis (MDA-MB-231 cells [6]; 6 µM, 48 h)?
Answer: 18.68 ± 4.86%

Question: And the Apoptosis (MDA-MB-231 cells [6]; 12 µM, 24 h)?
Answer: 16.37 ± 1.18%

Question: And the Apoptosis (MDA-MB-231 cells [6]; 12 µM, 48 h)?
Answer: 36.17 ± 3.43%

Question: What about the “Inhibition of PARP1 activity” value (PARP1) of the same compound?
Answer: not able to inhibit
